Biological target: CDK2/Cyclin E kinase (Homo sapiens, UniProt P24941)
Assay: CDK2/Cyclin E Flashplate Assay: 96-well format
Format: biochemical
Conditions: streptavidin-coated flashplate, biotinylated-Rb peptide substrate 10 μM, 33PγATP/ATP 1 μM, CDK2/Cyclin E 20 nM, 30 minute at 30° C., 1% DMSO
Description: Functional Measurements for Determination of IC50-Values
CDK2/Cyclin E Flashplate Assay: 96-Well Format
A 96-well streptavidin-coated flashplate is used to assay potency of compounds according formula (I) against CDK2/Cyclin E kinase. To carry out the assay, biotinylated-Rb peptide substrate (Biotin-[…]-OH) is solubilized at 1 mM in kinase buffer (Hepes 50 mM, NaCI 1 mM, MgCI2 5mM pH 7.5) as a stock solution conserved at −20° C. in aliquots of 110 μl. The day of the experiment, an aliquot of this solution is thawed and diluted to 14.3 μM in kinase buffer, containing 1 mM dithithreitol (DTT) added in the buffer extemporarily.
70 μl of this solution is added in each well of the flashplate in order to achieve a final concentration of 10 μM (100 μl reactionnal volume). Serial dilutions of inhibitors are prepared in DMSO from 10 mM stock solutions in order to achieve 1000 μM, 333.3 μM, 111.1 μM, 37.03 μM, 12.35 μM, 4.11 μM and 1.37 μM and all rediluted in kinase buffer+DTT in order to achieve 100 μM, 33.3 μM, 11.1 μM, 3.7 μM, 1.24 μM, 0.41 μM and 0.14 μM in DMSO 10% buffer (vol/vol). 10 μl of each of these solutions (or 10 μl of buffer+DTT for controls) are transferred to the testplate wells in order to achieve 10 μM, 3.33 μM, 1.11 μM, 0.37 μM, 0.12 μM, 0.04 μM and 0.01 μM as final concentrations, 1% DMSO (vol/vol). In each well, 10 μl of a solution of a mix of ^33PγATP/ATP are added in order to achieve 1 μM final concentration and a total of 1 μCi. The kinase reaction is initiated by addition of 10 μl of a solution at 200 nM of CDK2/Cyclin E in kinase buffer+DTT (or buffer+DTT for blanks) in order to achieve 20 nM final concentration. After addition of each reagent, the test-plate is shaken. The plates are incubated 30 minute at 30° C. with a shaking at 650 rpm. At the end of the incubation, the plates are washed 3 times with 300 μl of PBS (without calcium and magnesium) per well. The incorporation of ^33P to the peptide is measured by scintillation counting.

SMILES	IC50
O=c1[nH]nc(-c2ccc(O)cc2)cc1-c1cc2ccccc2[nH]1 [Example 2, 6-(4-Hydroxy-phenyl)-4-(1H-indol-2-yl)-2H-pyridazin-3-one]	33 nM
Cc1ccc2[nH]c(-c3cc(-c4ccncc4)n[nH]c3=O)cc2c1 [Example 14, 4-(5-Methyl-1H-indol-2-yl)-6-pyridin-4-yl-2H-pyridazin-3-one]	26 nM
O=c1[nH]nc(-c2ccncc2)cc1-c1cc2ccc(OCc3ccccc3)cc2[nH]1 [Example 23, 4-(6-Benzyloxy-1H-indol-2-yl)-6-pyridin-4-yl-2H-pyridazin-3-one]	48 nM

Further lines, results first:

IC50	SMILES
20 nM	CCN(CC)CCOc1ccc2cc(-c3cc(-c4ccncc4)n[nH]c3=O)[nH]c2c1 [Example 20, 4-[6-(2-Diethylamino-ethoxy)-1H-indol-2-yl]-6-pyridin-4-yl-2H-pyridazin-3-one]
35 nM	CN(C)CCCOc1ccc2[nH]c(-c3cc(-c4ccncc4)n[nH]c3=O)cc2c1 [Example 30, 4-[5-(3-Dimethylamino-propoxy)-1H-indol-2-yl]-6-pyridin-4-yl-2H-pyridazin-3-one]

Reference: patent US7507734B2, “Pyridazinone derivatives” (Aventis Pharma S.A., priority 2004, dated 2009)
